Results published in ChEMBL document CHEMBL1201862, “PubChem BioAssay data set” (2004).
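Compound exposure: 48 hours, 5 concentrations, 96-well plates. At the GI50, growth is halved.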 Active and inactive are the calls of the source. No stated cut-off is given here; in the data, active = GI50 up to about 1.1 µM and inactive = higher.

Key:
Experiment in all cases: growth of human tumour cells (NCI), 48 h
[1] = test system: T47D
[2] = test system: IGROV-1
[3] = test system: PC-3
[4] = test system: SK-MEL-2
[5] = test system: SW-620
[6] = test system: Hs-578T
[7] = test system: SN12C
[8] = test system: SF-295
[9] = test system: HL-60
[10] = test system: U-251
[11] = test system: HCC 2998
[12] = test system: CAKI-1
[13] = test system: SNB-75
[14] = test system: COLO 205
[15] = test system: NCI-H522
[16] = test system: SK-MEL-28
[17] = test system: MDA-MB-231
[18] = test system: OVCAR-5
[19] = test system: DU-145
[20] = test system: A498
[21] = test system: UACC-257
[22] = test system: OVCAR-8
[23] = test system: LOX IMVI
[24] = test system: M14
[25] = test system: SK-OV-3
[26] = test system: OVCAR-4
[27] = test system: BT-549
[28] = test system: HT-29
[29] = test system: SF-268
[30] = test system: UO-31
[31] = test system: HOP-92
[32] = test system: UACC-62
[33] = test system: CCRF-CEM
[34] = test system: K562
[35] = test system: EKVX
[36] = test system: SNB-19
[37] = test system: MDA-N
[38] = test system: NCI-H226
[39] = test system: NCI-H460
[40] = test system: NCI-H23
[41] = test system: SR
[42] = test system: KM12
[43] = test system: HCT-15
[44] = test system: A549
[45] = test system: HCT-116
[46] = test system: MOLT-4
[47] = test system: SF-539
[48] = test system: SK-MEL-5
[49] = test system: NCI/ADR-RES
[50] = test system: ACHN
[51] = test system: RPMI-8226
[52] = test system: TK-10
[53] = test system: MCF7
[54] = test system: RXF 393
[55] = test system: HOP-62
[56] = test system: Malme-3M
[57] = test system: OVCAR-3
[58] = test system: 786-0
[59] = test system: MDA-MB-435

SMILES: c1ccc2c(c1)c1c3n2-c2cc(on2)C3CCC1 (centres undefined)
- GI50 [1]: > 100 µM (inactive)
- GI50 [2]: > 100 µM (inactive)
- GI50 [3]: > 100 µM (inactive)
- GI50 [4]: > 100 µM (inactive)
- GI50 [5]: > 100 µM (inactive)
- GI50 [6]: > 100 µM (inactive)
- GI50 [7]: > 100 µM (inactive)
- GI50 [8]: > 100 µM (inactive)
- GI50 [9]: > 100 µM (inactive)
- GI50 [10]: > 100 µM (inactive)
- GI50 [11]: > 100 µM (inactive)
- GI50 [12]: > 100 µM (inactive)
- GI50 [13]: > 100 µM (inactive)
- GI50 [14]: 98.4 µM (inactive)
- GI50 [15]: > 100 µM (inactive)
- GI50 [16]: > 100 µM (inactive)
- GI50 [17]: > 100 µM (inactive)
- GI50 [18]: > 100 µM (inactive)
- GI50 [19]: > 100 µM (inactive)
- GI50 [20]: > 100 µM (inactive)
- GI50 [21]: > 100 µM (inactive)
- GI50 [22]: > 100 µM (inactive)
- GI50 [23]: > 100 µM (inactive)
- GI50 [24]: > 100 µM (inactive)
- GI50 [25]: > 100 µM (inactive)
- GI50 [26]: > 100 µM (inactive)
- GI50 [27]: > 100 µM (inactive)
- GI50 [28]: > 100 µM (inactive)
- GI50 [29]: > 100 µM (inactive)
- GI50 [30]: > 100 µM (inactive)
- GI50 [31]: > 100 µM (inactive)
- GI50 [32]: > 100 µM (inactive)
- GI50 [33]: 82.6 µM (inactive)
- GI50 [34]: > 100 µM (inactive)
- GI50 [35]: > 100 µM (inactive)
- GI50 [36]: > 100 µM (inactive)
- GI50 [37]: > 100 µM (inactive)
- GI50 [38]: > 100 µM (inactive)
- GI50 [39]: > 100 µM (inactive)
- GI50 [40]: > 100 µM (inactive)
- GI50 [41]: > 100 µM (inactive)
- GI50 [42]: > 100 µM (inactive)
- GI50 [43]: > 100 µM
- GI50 [44]: > 100 µM (inactive)
- GI50 [45]: > 100 µM (inactive)
- GI50 [46]: 70.1 µM (inactive)
- GI50 [47]: > 100 µM (inactive)
- GI50 [48]: > 100 µM (inactive)
- GI50 [49]: > 100 µM (inactive)
- GI50 [50]: > 100 µM (inactive)
- GI50 [51]: > 100 µM (inactive)
- GI50 [52]: > 100 µM (inactive)
- GI50 [53]: > 100 µM (inactive)
- GI50 [54]: > 100 µM (inactive)
- GI50 [55]: > 100 µM (inactive)
- GI50 [56]: > 100 µM (inactive)
- GI50 [57]: > 100 µM (inactive)
- GI50 [58]: > 100 µM (inactive)
- GI50 [59]: > 100 µM (inactive)
